From patent EP3211076A1, “NOVEL ALPHA-GLUCOSIDASE” (Showa Sangyo Co., Ltd., priority 2014, dated 2016)

Experiments:
[1] = system: α-Glucosidase Derived from NBRC4239 Strain; test: Substrate specificity of the enzyme; type: biochemical, Aspergillus sojae; conditions: 40°C, pH 6.0; for Relative Activity* (%): substrate 10mM, relative to decomposition rate of 10 mM maltose
Procedure: The substrate specificity of the present enzyme was evaluated at the conditions of 40°C and pH 6.0.

[2] = system: α-Glucosidase Derived from NBRC4239 Strain; test: Effect of metal ion on the enzyme activity; type: biochemical, Aspergillus sojae
Procedure: The hydrolytic activity using maltose as the substrate was measured as shown below. A 20 mM maltose (50µL) dissolved in the 20mM MES buffer (pH 6.0) and an enzyme solution diluted by the buffer are mixed and incubated at 40°C for 30 min., then, 1 µL of 10% oxalic acid solution was added and heated at 100°C for 10 min. to stop the reaction. The amount of liberated glucose in the reaction solution was measured by Glucose CII Test Wako (produced by Wako Pure Chemical Industries, Ltd.). One unit of α-glucosidase activity was defined as the amount of enzyme that catalyzes hydrolysis of 1 µmol of maltose per minute. The effect of various metal ions on the present enzyme was studied. The enzyme activity was analyzed according to <Analysis Method of α-Glucosidase Activity>.

## OC[C@H]1O[C@H](OC[C@H]2O[C@H](O[C@H]3[C@H](O)[C@@H](O)C(O)O[C@@H]3CO)[C@H](O)[C@@H](O)[C@@H]2O)[C@H](O)[C@@H](O)[C@@H]1O (stereo partly drawn) [panose]
[1]
  Relative Activity* (%): 153%

## OC[C@H]1O[C@H](OC[C@H]2O[C@H](OC[C@H]3OC(O)[C@H](O)[C@@H](O)[C@@H]3O)[C@H](O)[C@@H](O)[C@@H]2O)[C@H](O)[C@@H](O)[C@@H]1O (stereo partly drawn) [isomaltotriose]
[1]
  Relative Activity* (%): 161%

## OC[C@H]1O[C@H](O[C@H]2[C@H](O)[C@@H](O)C(O)O[C@@H]2CO)[C@H](O)[C@@H](O)[C@@H]1O (mixture of isomers) [maltose]
[1]
  hydrolytic activity toward substrate (in words): well hydrolytic activities
  Relative Activity* (%): 100%

## O=C(O)CN(CCN(CC(=O)O)CC(=O)O)CC(=O)O [EDTA]
[2]; Concentration 5 mM added to reaction mixture, no addition = 100
  Specific Activity (%): 85%
[2]; addition of ions to the reaction mixture
  effect on the enzyme activity (in words): inhibited the activity somewhat

## kojibiose
[1]
  hydrolytic activity toward substrate (in words): well hydrolytic activities
  Relative Activity* (%): 91%

## OC[C@H]1O[C@H](O[C@H]2[C@H](O)[C@@H](O)[C@@H](O[C@H]3[C@H](O)[C@@H](O)[C@@H](O[C@H]4[C@H](O)[C@@H](O)[C@@H](O[C@H]5[C@H](O)[C@@H](O)[C@@H](O[C@H]6[C@H](O)[C@@H](O)C(O)O[C@@H]6CO)O[C@@H]5CO)O[C@@H]4CO)O[C@@H]3CO)O[C@@H]2CO)[C@H](O)[C@@H](O)[C@@H]1O (stereo partly drawn) [maltohexaose]
[1]
  Relative Activity* (%): 49%

## OC[C@H]1O[C@@H]2O[C@H]3[C@H](O)[C@@H](O)[C@@H](O[C@H]4[C@H](O)[C@@H](O)[C@@H](O[C@H]5[C@H](O)[C@@H](O)[C@@H](O[C@H]6[C@H](O)[C@@H](O)[C@@H](O[C@H]7[C@H](O)[C@@H](O)[C@@H](O[C@H]1[C@H](O)[C@H]2O)O[C@@H]7CO)O[C@@H]6CO)O[C@@H]5CO)O[C@@H]4CO)O[C@@H]3CO [α-cyclodextrine]
[1]
  hydrolytic activity toward substrate (in words): well hydrolytic activities
  Relative Activity* (%): 58%

## OC[C@H]1O[C@H](OC[C@H]2OC(O)[C@H](O)[C@@H](O)[C@@H]2O)[C@H](O)[C@@H](O)[C@@H]1O (stereo partly drawn) [isomaltose]
[1]
  hydrolytic activity toward substrate (in words): well hydrolytic activities
  Relative Activity* (%): 163%

## OC[C@H]1O[C@H](OC[C@H]2O[C@H](OC[C@H]3O[C@H](OC[C@H]4OC(O)[C@H](O)[C@@H](O)[C@@H]4O)[C@H](O)[C@@H](O)[C@@H]3O)[C@H](O)[C@@H](O)[C@@H]2O)[C@H](O)[C@@H](O)[C@@H]1O (stereo partly drawn) [isomaltotetraose]
[1]
  Relative Activity* (%): 168%

## OC[C@H]1O[C@H](O[C@H]2O[C@H](CO)[C@@H](O)[C@H](O)[C@H]2O)[C@H](O)[C@@H](O)[C@@H]1O [trehalose]
[1]
  hydrolytic activity toward substrate (in words): very slight
  Relative Activity* (%): 1%

## OC[C@H]1O[C@H](O[C@H]2[C@H](O)[C@@H](O)[C@@H](O[C@H]3[C@H](O)[C@@H](O)[C@@H](O[C@H]4[C@H](O)[C@@H](O)[C@@H](O[C@H]5[C@H](O)[C@@H](O)[C@@H](O[C@H]6[C@H](O)[C@@H](O)[C@@H](O[C@H]7[C@H](O)[C@@H](O)C(O)O[C@@H]7CO)O[C@@H]6CO)O[C@@H]5CO)O[C@@H]4CO)O[C@@H]3CO)O[C@@H]2CO)[C@H](O)[C@@H](O)[C@@H]1O (stereo partly drawn) [maltoheptaose]
[1]
  Relative Activity* (%): 57%

## OC[C@H]1O[C@H](O[C@H]2[C@H](O)[C@@H](O)[C@@H](O[C@H]3[C@H](O)[C@@H](O)[C@@H](O[C@H]4[C@H](O)[C@@H](O)C(O)O[C@@H]4CO)O[C@@H]3CO)O[C@@H]2CO)[C@H](O)[C@@H](O)[C@@H]1O (stereo partly drawn) [maltotetraose]
[1]
  hydrolytic activity toward substrate (in words): a little low
  Relative Activity* (%): 16%

## OC[C@H]1O[C@@H]2O[C@H]3[C@H](O)[C@@H](O)[C@@H](O[C@H]4[C@H](O)[C@@H](O)[C@@H](O[C@H]5[C@H](O)[C@@H](O)[C@@H](O[C@H]6[C@H](O)[C@@H](O)[C@@H](O[C@H]7[C@H](O)[C@@H](O)[C@@H](O[C@H]8[C@H](O)[C@@H](O)[C@@H](O[C@H]9[C@H](O)[C@@H](O)[C@@H](O[C@H]1[C@H](O)[C@H]2O)O[C@@H]9CO)O[C@@H]8CO)O[C@@H]7CO)O[C@@H]6CO)O[C@@H]5CO)O[C@@H]4CO)O[C@@H]3CO [γ-cyclodextrine]
[1]
  hydrolytic activity toward substrate (in words): a little low
  Relative Activity* (%): 14%

## OC[C@H]1O[C@H](O[C@H]2[C@H](O)[C@@H](CO)OC(O)[C@@H]2O)[C@H](O)[C@@H](O)[C@@H]1O (stereo partly drawn) [nigerose]
[1]
  hydrolytic activity toward substrate (in words): well hydrolytic activities
  Relative Activity* (%): 153%

## OC[C@H]1O[C@@H]2O[C@H]3[C@H](O)[C@@H](O)[C@@H](O[C@H]4[C@H](O)[C@@H](O)[C@@H](O[C@H]5[C@H](O)[C@@H](O)[C@@H](O[C@H]6[C@H](O)[C@@H](O)[C@@H](O[C@H]7[C@H](O)[C@@H](O)[C@@H](O[C@H]8[C@H](O)[C@@H](O)[C@@H](O[C@H]1[C@H](O)[C@H]2O)O[C@@H]8CO)O[C@@H]7CO)O[C@@H]6CO)O[C@@H]5CO)O[C@@H]4CO)O[C@@H]3CO [β-cyclodextrine]
[1]
  hydrolytic activity toward substrate (in words): well hydrolytic activities
  Relative Activity* (%): 48%

## OC[C@H]1O[C@H](O[C@H]2[C@H](O)[C@@H](O)[C@@H](O[C@H]3[C@H](O)[C@@H](O)[C@@H](O[C@H]4[C@H](O)[C@@H](O)[C@@H](O[C@H]5[C@H](O)[C@@H](O)C(O)O[C@@H]5CO)O[C@@H]4CO)O[C@@H]3CO)O[C@@H]2CO)[C@H](O)[C@@H](O)[C@@H]1O (stereo partly drawn) [maltopentaose]
[1]
  Relative Activity* (%): 41%

## OC[C@H]1O[C@H](O[C@H]2[C@H](O)[C@@H](O)[C@@H](O[C@H]3[C@H](O)[C@@H](O)C(O)O[C@@H]3CO)O[C@@H]2CO)[C@H](O)[C@@H](O)[C@@H]1O (stereo partly drawn) [maltotriose]
[1]
  Relative Activity* (%): 45%
